From ChEMBL document CHEMBL1154289, “Structure based design of novel irreversible FAAH inhibitors” (Bioorg Med Chem Lett, 2009)
Activity calls are given as the source filed them. No cut-off for these calls is given here.

Columns and labels:
[1] = target: T1, Fatty-acid amide hydrolase 1 (Homo sapiens) (UniProt O00519); test: Inhibition of human FAAH assessed as ratio of Kinact to Ki
T1 sequence (whole entry): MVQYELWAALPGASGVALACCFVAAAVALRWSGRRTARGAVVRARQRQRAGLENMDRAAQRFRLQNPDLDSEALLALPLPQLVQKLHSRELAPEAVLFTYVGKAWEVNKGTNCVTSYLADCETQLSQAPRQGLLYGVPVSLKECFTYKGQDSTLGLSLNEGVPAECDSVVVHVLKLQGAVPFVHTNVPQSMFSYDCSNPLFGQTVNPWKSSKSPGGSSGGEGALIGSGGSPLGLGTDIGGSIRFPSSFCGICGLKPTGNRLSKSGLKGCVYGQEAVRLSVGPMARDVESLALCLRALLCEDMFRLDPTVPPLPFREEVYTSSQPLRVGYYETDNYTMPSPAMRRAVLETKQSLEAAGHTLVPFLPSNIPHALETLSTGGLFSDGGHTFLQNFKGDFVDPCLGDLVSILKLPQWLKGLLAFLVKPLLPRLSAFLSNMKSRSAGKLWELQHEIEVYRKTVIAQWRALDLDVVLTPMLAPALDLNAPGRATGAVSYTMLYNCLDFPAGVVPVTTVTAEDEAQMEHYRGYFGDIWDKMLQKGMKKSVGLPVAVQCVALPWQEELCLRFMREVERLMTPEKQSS

[2] = target: T2, Fatty-acid amide hydrolase 1 (Rattus norvegicus) (UniProt P97612); test: Inhibition of rat FAAH assessed as ratio of Kinact to Ki
T2 sequence (whole entry): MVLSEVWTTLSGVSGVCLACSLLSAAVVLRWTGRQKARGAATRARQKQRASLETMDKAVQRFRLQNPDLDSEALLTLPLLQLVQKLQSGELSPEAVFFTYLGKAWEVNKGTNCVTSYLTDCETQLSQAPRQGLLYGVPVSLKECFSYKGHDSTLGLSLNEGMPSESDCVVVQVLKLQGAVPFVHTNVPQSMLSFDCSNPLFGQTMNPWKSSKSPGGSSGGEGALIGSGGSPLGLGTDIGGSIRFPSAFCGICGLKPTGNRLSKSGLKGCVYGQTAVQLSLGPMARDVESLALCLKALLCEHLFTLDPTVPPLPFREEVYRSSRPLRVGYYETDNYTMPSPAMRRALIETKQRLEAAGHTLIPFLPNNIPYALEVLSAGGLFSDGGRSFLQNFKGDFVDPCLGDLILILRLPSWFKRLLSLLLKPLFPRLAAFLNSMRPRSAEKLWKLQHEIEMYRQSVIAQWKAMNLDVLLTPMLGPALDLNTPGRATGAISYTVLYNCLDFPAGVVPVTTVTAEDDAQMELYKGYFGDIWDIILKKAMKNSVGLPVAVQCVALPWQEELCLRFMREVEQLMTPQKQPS

[3] = Bioavailability in rat; assay type: ADME, organism-based; settings: in vivo

Ratio [1]	Ratio [2]	bioavailability [3]	Compound
2100 M⁻¹ s⁻¹	2310 M⁻¹ s⁻¹		O=C(Nc1cccnc1)N1CC(C/C=C/c2cccc(Oc3ccc(C(F)(F)F)cn3)c2)C1
9000 M⁻¹ s⁻¹	5390 M⁻¹ s⁻¹	73%	O=C(Nc1cccnc1)N1CC(/C=C\Cc2cccc(Oc3ccc(C(F)(F)F)cn3)c2)C1
782 M⁻¹ s⁻¹	inactive		O=C(Nc1cccnc1)N1CC(C/C=C\c2cccc(Oc3ccc(C(F)(F)F)cn3)c2)C1
9340 M⁻¹ s⁻¹	2380 M⁻¹ s⁻¹	93%	O=C(Nc1cccnc1)N1CC(/C=C/Cc2cccc(Oc3ccc(C(F)(F)F)cn3)c2)C1

Continued, compound first:

Compound	Ratio [1]	Ratio [2]	bioavailability [3]
O=C(Nc1cccnc1)N1CC(=CCCc2cccc(Oc3ccc(C(F)(F)F)cn3)c2)C1	621 M⁻¹ s⁻¹	1310 M⁻¹ s⁻¹	
O=C(Nc1cccnc1)N1CC(C#CCc2cccc(Oc3ccc(C(F)(F)F)cn3)c2)C1	861 M⁻¹ s⁻¹	465 M⁻¹ s⁻¹	
Cc1noc(NC(=O)N2CC(CCCc3cccc(Oc4ccc(C(F)(F)F)cn4)c3)C2)c1C	1450 M⁻¹ s⁻¹	15300 M⁻¹ s⁻¹	
O=C(Nc1cccnn1)N1CC(CCCc2cccc(Oc3ccc(C(F)(F)F)cn3)c2)C1	3030 M⁻¹ s⁻¹	1840 M⁻¹ s⁻¹	
O=C(Nc1cccnc1)N1CC(CCCc2cccc(Oc3ccc(C(F)(F)F)cn3)c2)C1	1090 M⁻¹ s⁻¹	688 M⁻¹ s⁻¹	
O=C(Nc1cncc2[nH]ccc12)N1CC(CCCc2cccc(Oc3ccc(C(F)(F)F)cn3)c2)C1	881 M⁻¹ s⁻¹	5160 M⁻¹ s⁻¹	
